Results taken from patent US8877775B2, “Substituted 2-aza-bicyclo[2.2.2]octane-3-carboxylic acid (benzyl-cyano-methyl)-amides inhibitors of cathepsin C” (Boehringer Ingelheim International GmbH, priority 2013, dated 2014).

What was measured:
[1] = Metabolic stability with human liver microsomes; type: in vitro ADME; conditions: pH 7.6; pooled human liver microsomes, 37° C., 1 μM test compound, 1 mg/ml protein, NADPH; read-out: In vitro stability in human liver microsome incubations t1/2
Protocol: Determination of Metabolic Stability with Human Liver Microsomes
The metabolic degradation of the test compound is assayed at 37° C. with pooled human liver microsomes. The final incubation volume of 100 μl per time point contains TRIS buffer pH 7.6 (0.1 M), magnesium chloride (5 mM), microsomal protein (1 mg/ml) and the test compound at a final concentration of 1 μM. Following a short preincubation period at 37° C., the reactions are initiated by addition of beta-nicotinamide adenine dinucleotide phosphate, reduced form (NADPH, 1 mM) and terminated by transfering an aliquot into acetonitrile after different time points. Additionally, the NADPH-independent degradation is monitored in incubations without NADPH, terminated at the last time point. The [%] remaining test compound after NADPH independent incubation is reflected by the parameter c(control) (metabolic stability). The quenched incubations are pelleted by centrifugation (10′000 g, 5 min). An aliquot of the supernatant is assayed by LC-MS/MS for the amount of parent compound.
The half-life (t1/2 INVITRO) is determined by the slope of the semilogarithmic plot of the concentration-time profile. The intrinsic clearance (CL_[…]) is calculated by considering the amount of protein in the incubation: CL_[…][μl/min/mg protein]=(In 2/(half-life[min]*protein content[mg/ml]))*1′000. The half-life (t1/2 INVITRO) values of selected compounds in the metabolic stability assay described above are listed in the following table

[2] = target: recombinant human Cathepsin K (Homo sapiens (Human), UniProt P43235); test: Inhibition of human Cathepsin K; type: biochemical; conditions: substrate Z-Gly-Pro-Arg-AMC 12.5 μM, 60 min, room temperature
recombinant human Cathepsin K, sequence (P43235 115-329): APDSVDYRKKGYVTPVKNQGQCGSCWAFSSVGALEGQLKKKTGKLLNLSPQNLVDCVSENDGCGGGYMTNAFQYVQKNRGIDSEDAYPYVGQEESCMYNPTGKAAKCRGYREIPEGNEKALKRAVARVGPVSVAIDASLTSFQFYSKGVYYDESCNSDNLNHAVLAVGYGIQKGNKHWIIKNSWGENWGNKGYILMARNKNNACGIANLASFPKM
Description: Inhibition of Human Cathepsin K
Materials: Microtiterplates (Optiplate-384 F were purchased from PerkinElmer (Prod. No. 6007270). The substrate Z-Gly-Pro-Arg-AMC was from Biomol (Prod.-No. P-142). L-Cysteine (Prod. No. 168149) was from Sigma. Sodium actetate was from Merck (Prod.-No. 6268.0250), EDTA was from Fluka (Prod.-No. 03680). The inhibitor E-64 was purchased from Sigma (Prod.-No. E3132). The recombinant human Cathepsin K proenzyme was purchased from Biomol (Prod. No. SE-367). All other materials were of highest grade commercially available.
The following buffers were used: Activation buffer: 32.5 mM sodium acetate, adjusted to pH 3.5 with HCl; Assay buffer: 150 mM sodium acetate, 4 mM EDTA, 20 mM L-Cysteine, adjusted to pH 5.5 with HCl,
To activate the proenzyme, 5 μl procathepsin K were mixed with 1 ul activation buffer, and incubated at room temperature for 30 min.
5 μL test compound (final concentration 0.1 nM to 100 μM) in aqua bidest (containing 4% DMSO, final DMSO concentration 1%) were mixed with 10 uL of Cathepsin K in assay buffer (final concentration 2 ng/μL) and incubated for 10 min. Then 5 μL of substrate in assay buffer (final concentration 12.5 μM) were added. The plates were then incubated at room temperature for is 60 min. Then, the reaction was stopped by adding 10 μL of E64 in assay buffer (final concentration 1 μM). The fluorescence in the wells was determined using a Molecular Devices SpectraMax M5 Fluorescence Reader (Ex 360 nm, Em 460 nm).
Each assay microtiter plate contains wells with vehicle controls (1% DMSO in bidest) as reference for non-inhibited enzyme activity (100% Ctl; high values) and wells with inhibitor (E64 in bidest+1% DMSO, final concentration 1 μM) as controls for background fluorescence (0% Ctl; low values). The analysis of the data was performed by calculating the percentage of fluorescence in the presence of test compound in comparison to the fluorescence of the vehicle control after subtracting the background fluorescence: (RFU(sample)−RFU(background))*100/(RFU(control)−RFU(background))
Data from these calculations were used to generate IC50 values for inhibition of Cathepsin K, respectively.

[3] = target: recombinant human DPPI (Cathepsin C) (Homo sapiens (Human), UniProt P53634); test: Inhibition of human DPPI (Cathepsin C); type: biochemical; conditions: substrate Gly-Arg-AMC 50 μM, 30 min, room temperature
recombinant human DPPI (Cathepsin C), sequence (P53634 231-394): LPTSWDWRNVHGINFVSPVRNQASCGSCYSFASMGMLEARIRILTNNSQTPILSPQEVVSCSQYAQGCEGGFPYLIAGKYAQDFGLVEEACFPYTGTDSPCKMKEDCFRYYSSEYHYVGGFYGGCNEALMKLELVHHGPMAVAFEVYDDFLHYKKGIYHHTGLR
recombinant human DPPI (Cathepsin C), sequence (P53634 395-463): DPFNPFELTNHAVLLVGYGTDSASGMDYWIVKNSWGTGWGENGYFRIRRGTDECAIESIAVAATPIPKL
recombinant human DPPI (Cathepsin C), sequence (P53634 25-134): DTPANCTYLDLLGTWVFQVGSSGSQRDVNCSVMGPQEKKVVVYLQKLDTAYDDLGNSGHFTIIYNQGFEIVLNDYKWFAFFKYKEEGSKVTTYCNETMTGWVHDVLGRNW
Description: Inhibition of Human DPPI (Cathepsin C)
Materials: Microtiterplates (Optiplate-384 F) were purchased from PerkinElmer (Prod. No. 6007270). The substrate Gly-Arg-AMC was from Biotrend (Prod.-No. 808756 Custom peptide). Bovine serum albumin (BSA; Prod. No. A3059) and Dithiothreitol (DTT; Prod. No D0632) were from Sigma. TagZyme buffer was from Riedel-de-Haen (Prod.-No. 04269), NaCl was from Merck (Prod.-No. 1.06404.1000) and morpholinoethane sulfonic acid (MES), was from Serva (Prod.-No. 29834). The DPP1 inhibitor Gly-Phe-DMK was purchased from MP Biomedicals (Prod.-No. 03DK00625). The recombinant human DPPI was purchased from Prozymex. All other materials were of highest grade commercially available.
The following buffers were used: MES buffer: 25 mM MES, 50 mM NaCl, 5 mM DTT, adjusted to pH 6.0, containing 0.1% BSA; TAGZyme Buffer: 20 mM NaH2PO4, 150 mM NaCl adjusted to pH 6.0 with HCl
The recombinant human DPPI was diluted in TAGZyme buffer to 1 U/ml (38.1 μg/ml, respectively), and then activated by mixing in a 1:2 ratio with a Cysteamine aqueous solution (2 mM) and incubating for 5 min at room temperature.
Five uL test compound (final concentration 0.1 nM to 100 μM) in aqua bidest (containing 4% DMSO, final DMSO concentration 1%) were mixed with 10 μL of DPPI in MES buffer (final concentration 0.0125 ng/μL) and incubated for 10 min. Then, 5 μL of substrate in MES buffer (final concentration 50 μM) were added. The microtiter plates were then incubated at room temperature for 30 min. Then, the reaction was stopped by adding 10 μL of Gly-Phe-DMK in MES-buffer (final concentration 1 μM). The fluorescence in the wells was determined using a Molecular Devices SpectraMax M5 Fluorescence Reader (Ex 360 nm, Em 460 nm) or an Envision Fluorescence Reader (Ex 355 nm, Em 460 nm).
The analysis of the data was performed by calculating the percentage of fluorescence in the presence of test compound in comparison to the fluorescence of the vehicle control after subtracting the background fluorescence using the following formula: (RFU(sample)−RFU(background))*100/(RFU(control)−RFU(background))
Data from these calculations were used to generate IC50 values for inhibition of DPPI, respectively.

CS(=O)(=O)c1cc(-c2ccc(C[C@@H](C#N)NC(=O)[C@H]3NC4CCC3CC4)cc2)ccc1C#N [Example 8]
half-life at 1 μM [1]: > 2.17 h | IC50 [2]: 5300 nM | IC50 [3]: 70.2 nM

CS(=O)(=O)c1cccc(-c2ccc(C[C@@H](C#N)NC(=O)[C@H]3NC4CCC3CC4)cc2)c1 [Example 10]
half-life at 1 μM [1]: > 2.17 h | IC50 [2]: 5300 nM | IC50 [3]: 73.5 nM

N#C[C@H](Cc1ccc(-c2ccc3c(c2)CNC3=O)cc1)NC(=O)[C@H]1NC2CCC1CC2 [Example 11]
half-life at 1 μM [1]: > 2.17 h | IC50 [2]: 11000 nM | IC50 [3]: 86.7 nM

N#C[C@H](Cc1ccc(-c2ccc3c(c2)NC(=O)C3)cc1)NC(=O)[C@H]1NC2CCC1CC2 [Example 2, (2S)—N-[(1S)-cyano-2-[4-(2-oxoindolin-6-yl)phenyl]ethyl]-3-azabicyclo[2.2.2]octane-2-carboxamide]
half-life at 1 μM [1]: 2 h | IC50 [2]: 4200 nM | IC50 [3]: 50.1 nM

N#Cc1ccc(-c2ccc(C[C@@H](C#N)NC(=O)[C@H]3N[C@H]4CC[C@@H]3CC4)cc2)cc1F [Example 7, (2S)—N-[(1S)-1-cyano-2-[4-(4-cyano-3-fluoro-phenyl)phenyl]ethyl]-3-azabicyclo[2.2.2]octane-2-carboxamide]
half-life at 1 μM [1]: > 2.17 h | IC50 [2]: 5700 nM | IC50 [3]: 66.4 nM

CN1C(=O)Cc2ccc(-c3ccc(C[C@@H](C#N)NC(=O)[C@H]4N[C@H]5CC[C@@H]4CC5)cc3)cc21 [Example 4]
half-life at 1 μM [1]: 1.47 h | IC50 [2]: 6300 nM | IC50 [3]: 32.2 nM

CS(=O)(=O)Nc1cccc(-c2ccc(C[C@@H](C#N)NC(=O)[C@H]3NC4CCC3CC4)cc2)c1 [Example 12]
half-life at 1 μM [1]: 1.07 h | IC50 [2]: 9900 nM | IC50 [3]: 97.4 nM
